Measured values as given in BindingDB's records for doi:10.1016/s0960-894x(99)00298-x (Agrevo, 1999).

Test: Inhibition of Pisum sativum (pea) adenylate deaminase

IC50: 100 nM
SMILES: O=P(O)(O)OC[C@H]1O[C@@H](c2n[nH]c3cncnc23)[C@H](O)[C@@H]1O
